pIC50: −log10 of the molar value. Like-named read-outs stand apart in the source and are kept apart here.
Columns and labels:
[1] = molecular target: T1, Sheep seminal vesicle (SSV) cyclooxygenase (Ovis aries, UniProt P05979); test: Procedure I: inhibition of sheep seminal vesicle (SSV) cyclooxygenase; format: biochemical; conditions: for inhibition at 10 µM: 20 min, read-out: Proc. I % inhibition
T1 construct: Sheep seminal vesicle (SSV) cyclooxygenase (95% pure); purchased Biomol (Plymouth Meeting, PA); host or cells: sheep seminal vesicle
T1 sequence (P05979 25-600): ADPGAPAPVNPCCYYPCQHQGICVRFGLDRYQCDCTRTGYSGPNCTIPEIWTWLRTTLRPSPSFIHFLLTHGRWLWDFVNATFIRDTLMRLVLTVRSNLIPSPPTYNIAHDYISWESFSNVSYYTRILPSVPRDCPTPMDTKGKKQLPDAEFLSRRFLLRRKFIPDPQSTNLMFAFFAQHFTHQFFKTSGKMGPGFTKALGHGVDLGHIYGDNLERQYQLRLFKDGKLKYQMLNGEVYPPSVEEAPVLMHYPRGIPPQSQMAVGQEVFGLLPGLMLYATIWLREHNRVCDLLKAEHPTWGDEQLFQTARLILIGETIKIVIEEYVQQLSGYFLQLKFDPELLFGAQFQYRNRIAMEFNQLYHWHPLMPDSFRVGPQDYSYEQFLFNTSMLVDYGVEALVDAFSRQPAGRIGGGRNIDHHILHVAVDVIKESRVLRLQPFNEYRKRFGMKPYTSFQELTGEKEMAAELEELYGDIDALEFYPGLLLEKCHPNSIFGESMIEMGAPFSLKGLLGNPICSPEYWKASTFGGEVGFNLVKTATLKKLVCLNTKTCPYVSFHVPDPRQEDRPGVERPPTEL
Protocol: Procedure I was used to determine the ability of the compounds to inhibit cyclooxygenase. […] The enzyme was divided into 200 μL aliquots, snap frozen with liquid N2, and stored at -70° C. until immediately prior to use. […] The tubes were mixed on a vortex shaker, preincubated for 5 min at 37° C. prior to the initiation of the reaction. The reaction was started by the addition of [^14 C]-arachidonic acid (1-^14 C-AA, Amersham, Arlington Heights, Ill.) in 10 μL of methanol. Tubes were again vortexed and incubated in a water bath for 20 minutes after which the tubes were removed and the reaction stopped by acidification with the addition of 1 mL 2M formic acid. Lipophilic products were extracted with 3 mL chloroform and concentrated to dryness under N2. Each pellet was reconstituted with 40 μL of chloroform and spotted on a Whatman Silicon thin-layer chromatography plate and developed in a chromatography tank containing A-9 solvent (11:5:2:1 V:V:VV, ethyl acetate:trimethyl-pentane:acetic acid:double distilled-H2 O). Radioactive cyclooxygenase products (prostaglandin D2, prostaglandin E2, etc.) were measured using a Bioscan System 200 Imaging Scanner. Inhibition of enzyme activity was calculated by comparing the areas under the curve produced in the presence or absence of test compound.

CO [2] = molecular target: T2, CO (Rattus norvegicus, UniProt Q63921); test: Procedure II: CO activity in broken RBL-1 cells (homogenate supernatant); format: biochemical; conditions: 20 min; @ 10 .quadrature.M; RBL-1 broken cell supernatant; read-out: Proc. II CO % inhibition
T2 construct: the supernatant was saved as the source of enzymes; endogenous in cells; host or cells: RBL-1 (rat basophilic leukemia) cells
T2 sequence (Q63921 27-602): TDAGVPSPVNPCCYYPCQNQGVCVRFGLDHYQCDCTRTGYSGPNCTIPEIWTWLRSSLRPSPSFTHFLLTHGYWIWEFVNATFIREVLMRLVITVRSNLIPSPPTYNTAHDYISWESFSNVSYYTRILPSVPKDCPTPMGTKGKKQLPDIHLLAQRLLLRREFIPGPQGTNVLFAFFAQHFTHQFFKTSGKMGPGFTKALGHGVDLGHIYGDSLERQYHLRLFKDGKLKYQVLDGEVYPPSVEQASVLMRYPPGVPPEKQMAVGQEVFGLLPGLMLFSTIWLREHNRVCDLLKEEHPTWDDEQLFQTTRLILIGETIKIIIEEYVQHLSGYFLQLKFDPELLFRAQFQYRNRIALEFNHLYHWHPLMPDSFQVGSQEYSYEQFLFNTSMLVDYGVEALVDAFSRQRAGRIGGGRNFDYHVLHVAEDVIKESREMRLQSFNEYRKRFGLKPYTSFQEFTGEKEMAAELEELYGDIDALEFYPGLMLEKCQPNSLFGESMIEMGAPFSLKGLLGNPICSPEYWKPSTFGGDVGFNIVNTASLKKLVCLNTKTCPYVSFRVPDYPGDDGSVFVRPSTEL
Protocol: (§1) Procedure II was used to assess LO and CO activity. Rat basophilic leukemia cells (RBL-1; 5×10^7 viable cells/mL) were disrupted by homogenization on ice (four 20 sec bursts) with a Brinkman polytron. […] The homogenate was then centrifuged at 9,220×g for 48 minutes at 4° C. The pellet was discarded and the supernatant was saved as the source of enzymes. The supernatant was pre-incubated for five minutes at 37° C. in the presence of 2 mM of CaCl2 and compound or vehicle (1% DMSO). The conversion of AA into products by CO and LO was initiated by adding 10 μL (50 μCi) of 1-^14 C-AA to each tube and incubated at 37° C. for 20 minutes. The reaction was stopped by adjusting the pH of each sample to 3 to 3.5 with 2M formic acid. Samples were extracted with three volumes of chloroform to isolate the products of 5-LO formed during the reaction. Fractions were dried under nitrogen, then resuspended in 40 μL of chloroform and spotted onto silica gel HL plates. The plates were developed in A-9 solvent. The dried plates were analyzed using a Bioscan Imaging TLC scanner to determine the percentage of radiolabelled AA converted to 5-HETE (LO product) in each sample. The percentage of inhibition was calculated by:
(§2) [1-(5-HETE test)]/5-HETE control×100=% inhibition
(§3) The IC50 was determined using a curve fit in Cricket Graph (Computer Associated), which provided the equation of the regressed line used in the calculation.

5-LO [3] = molecular target: T3, 5-LO (Rattus norvegicus, UniProt P12527); test: Procedure II: 5-LO activity (5-HETE) in broken RBL-1 cells (homogenate supernatant); format: biochemical; conditions: RBL-1 broken cell supernatant; for inhibition at 10 µM: 20 min, @ 10 .quadrature.M, read-out: Proc. II 5-LO % inhibition
T3 construct: the supernatant was saved as the source of enzymes; endogenous in cells; host or cells: RBL-1 (rat basophilic leukemia) cells
T3 sequence (P12527 1-673): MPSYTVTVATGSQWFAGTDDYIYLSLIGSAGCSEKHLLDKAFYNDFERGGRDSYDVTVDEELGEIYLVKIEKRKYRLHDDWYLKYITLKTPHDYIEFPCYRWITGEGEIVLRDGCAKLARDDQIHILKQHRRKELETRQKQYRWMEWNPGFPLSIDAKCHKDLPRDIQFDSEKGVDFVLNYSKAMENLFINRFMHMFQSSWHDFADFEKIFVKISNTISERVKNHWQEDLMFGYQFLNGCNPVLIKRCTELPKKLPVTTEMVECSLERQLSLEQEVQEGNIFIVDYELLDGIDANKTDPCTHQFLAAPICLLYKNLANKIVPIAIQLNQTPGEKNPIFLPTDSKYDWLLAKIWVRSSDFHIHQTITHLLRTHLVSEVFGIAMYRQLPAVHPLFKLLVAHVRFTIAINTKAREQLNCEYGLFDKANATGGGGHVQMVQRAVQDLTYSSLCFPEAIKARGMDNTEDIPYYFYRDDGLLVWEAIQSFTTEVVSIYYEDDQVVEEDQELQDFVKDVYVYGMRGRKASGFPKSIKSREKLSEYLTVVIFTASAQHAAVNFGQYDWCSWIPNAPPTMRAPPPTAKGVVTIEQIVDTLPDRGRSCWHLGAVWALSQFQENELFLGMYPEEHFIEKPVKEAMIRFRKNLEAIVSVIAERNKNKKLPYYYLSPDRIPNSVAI
Protocol: as §1, §2, §3

CO [4] = molecular target: T2, CO; test: Procedure III: CO (PgD2) in intact RBL-1 cells; format: cell-based; conditions: calcium ionophore A 23187, read-out: Proc. III CO IC50
Protocol: as §3
(§4) In Procedure III, the ability to inhibit 5-LO and CO in intact RBL-1 cells was also evaluated. […] Cells were collected by centrifugation, washed once in HBSS, and resuspended at a concentration of 1×10^5 cells/mL. Cells were incubated in the presence of vehicle or drug then centrifuged at 800×g for 10 minutes at 4° C. The supernatant was removed by aspiration and the cells were resuspended in 0.5 mL of HBSS. […] The conversion of AA to 5-LO products was initiated by the addition of 10 μL (50 μCi) of 1-^14 C-AA. Products were isolated by acidification and extraction, followed by thin layer chromatography analysis as described above. Radioactive areas corresponding to authentic 5-LO (5-HETE) and CO (PgD2) products were quantitated by the Bioscan 2000 Imaging System and the IC50 was calculated as above.

5-LO [5] = molecular target: T3, 5-LO; test: Procedure III: 5-LO (5-HETE) in intact RBL-1 cells; format: cell-based; conditions: calcium ionophore A 23187, read-out: Proc. III 5-LO IC50
Protocol: as §3, §4

[6] = @ 10 .quadrature.M, SSV cyclooxygenase

Row | inhibition at 10 µM [1, 6] [%] | inhibition at 10 µM (CO [2]) [%] | inhibition at 10 µM (5-LO [3]) [%] | pIC50 (CO [4]) | pIC50 (5-LO [5]) | pIC50 ([1]; SSV cyclooxygenase, read-out: Proc. I IC50) | pIC50 (5-LO [3]; read-out: Proc. II 5-LO IC50) | Compound | inhibition at 10 µM [1] [%]
1 | 38 | 0 | 90 | 4.84 | 5.41 | – | – | COc1ccc(-n2nc(C#CC(C(C)C)N(O)C(N)=O)cc2-c2ccc(Cl)cc2)cc1 (stereo not shown) [Cpd 12] | –
2 | 31 | 21 | 100 | – | – | – | – | CCCCCCCC(=O)N(O)C(C)C#Cc1cc(-c2ccc(Cl)cc2)n(-c2ccc(OC)cc2)n1 (stereo not shown) [Cpd 38] | –
3 | 74 | 100 | 100 | 6.55 | 5.06 | – | – | COC(=O)N(O)CC#Cc1cc(-c2ccc(C)cc2)n(-c2ccc(OC)cc2)n1 [Cpd 17, N-methoxycarbonyl-N-(1-(1-(4-methoxyphenyl)-5-(4-methylphenyl)pyrazol-3-yl)-1-propyn-3-yl)hydroxylamine] | –
4 | 5 | 0 | 79 | – | – | – | – | CNC(=O)N(O)C(C)C#Cc1cc(-c2ccc(Cl)cc2)n(-c2ccc(OC)cc2)n1 (stereo not shown) [Cpd 7] | –
5 | – | 100 | 100 | – | – | – | – | CCC(=O)N(O)C(C)C#Cc1cc(-c2ccc(Cl)cc2)n(-c2ccc(OC)cc2)n1 (stereo not shown) [Cpd 36] | –
6 | 0 | 14 | 29 | – | – | – | – | COc1ccc(-n2nc(C#CC(C)N(O)C(=O)CNCCCN(C)C)cc2-c2ccc(C)cc2)cc1 (stereo not shown) [Cpd 42] | –
7 | 14 | 32 | 82 | – | 5.55 | – | – | CCCNC(=O)N(O)C(C)C#Cc1cc(-c2ccc(Cl)cc2)n(-c2ccc(OC)cc2)n1 (stereo not shown) [Cpd 8] | –
8 | 0 | 0 | 37 | – | – | – | – | CCc1ccc(-c2cc(C#CC(C)N(O)C(=O)CCC(=O)O)nn2-c2ccc(OC)cc2)cc1 (stereo not shown) [Cpd 33] | –
9 | 76 | 67 | 93 | – | – | – | – | CCC(=O)N(O)C(C)C#Cc1cc(-c2ccc(C)cc2)n(-c2ccc(OC)cc2)n1 (stereo not shown) [Cpd 19] | –
10 | – | 61 | 70 | – | – | 5.89 | – | COc1ccc(-n2nc(C#CC(C)N(O)C(=O)c3ccco3)cc2-c2ccc(C)cc2)cc1 (stereo not shown) [Cpd 25, N-(furan-2-carbonyl)-N-(1-(1-(4-methoxyphenyl)-5-(4-methylphenyl)pyrazol-3-yl)-1-butyn-3-yl)hydroxylamine] | –
11 | 0 | 11 | 25 | – | – | – | – | CCc1ccc(-c2cc(C#CC(C)N(O)C(=O)CN3CCN(C)CC3)nn2-c2ccc(OC)cc2)cc1 (stereo not shown) [Cpd 45, N-(4-methylpiperazin-1-yl)acetyl-N-(1-[5-(4-ethylphenyl)-1-(4-methoxyphenyl)pyrazol-3-yl]-1-butyn-3-yl)hydroxylamine] | –
12 | 0 | 0 | 74 | – | – | – | – | COc1ccc(-n2nc(C#CC(C)N(O)C(=O)CCC(=O)O)cc2-c2ccc(Cl)cc2)cc1 (stereo not shown) [Cpd 39] | –
13 | – | 80 | 100 | – | – | – | – | COc1ccc(-n2nc(C#CC(C)N(O)C(=O)C(C)C)cc2-c2ccc(Cl)cc2)cc1 (stereo not shown) [Cpd 37] | –
14 | 9 | 0 | – | – | 6.05 | – | 7.10 | COc1ccc(-n2nc(C#CCN(O)C(N)=O)cc2-c2ccc(Cl)cc2)cc1 [Cpd 5, N-hydroxy-N-(1-(5-(4-chlorophenyl)-1-(4-methoxyphenyl)pyrazol-3-yl)-1-propyn-3-yl)urea] | –
15 | 0 | 0 | 93 | – | – | – | – | CCc1ccc(-c2cc(C#CC(C)N(O)C(=O)CN3CCOCC3)nn2-c2ccc(OC)cc2)cc1 (stereo not shown) [Cpd 44] | –

Row | Compound | inhibition at 10 µM [1, 6] [%] | inhibition at 10 µM (CO [2]) [%] | inhibition at 10 µM (5-LO [3]) [%] | pIC50 (CO [4]) | pIC50 (5-LO [5]) | pIC50 ([1]; SSV cyclooxygenase, read-out: Proc. I IC50) | pIC50 (5-LO [3]; read-out: Proc. II 5-LO IC50) | inhibition at 10 µM [1] [%]
16 | COc1ccc(-n2nc(C#CC(C)N(O)C(=O)N3CCCCC3)cc2-c2ccc(Cl)cc2)cc1 (stereo not shown) [Cpd 9] | – | – | 76 | – | 5.10 | – | – | 44
17 | COc1ccc(-n2nc(C#CCN(O)C(=O)c3ccccc3)cc2-c2ccc(C)cc2)cc1 [Cpd 15] | – | – | 100 | – | 5.10 | – | – | 52
